The target of experiment [1] is T1, HIV-1 RT-associated RNase H activity, V106A RT (Human immunodeficiency virus type 1 group M subtype B, UniProt P04585, V693A).
T1 construct: The 1:1 ration between the p66/p51 subunits was also verified; made in house; host or cells: E. coli M15
Put plainly: RNase H activity assay, V106A RT. The experiment is classed as biochemical, HIV-1 group M subtype B. As for the experimental part:
(§1) HIV RT-associated RNase H activity was measured as described in 100 μL reaction volume containing 50 mM Tris-HCl buffer pH 7.8, 6 mM MgCl2, 1 mM dithiothreitol (DTT), 80 mM KCl, 0.25 μM hybrid RNA/DNA 5'-GAUCUGAGCCUGGGAGCU-Fluorescin-3' (HPLC, dry, QC: Mass Check) (available from Metabion) 5'-Dabcyl-AGCTCCCAGGCTCAGATC-3'(HPLC, dry, QC: Mass Check), increasing concentrations of inhibitors, whose dilution were made in water, and different amount of enzymes according to a linear range of dose-response curve: 20 ng of WT RT; 60 ng K103N RT; 37.5 ng V106A RT; 75 ng V108A RT; 5 ng Y181C RT; 50 ng Y188A RT; 30 ng Y188L RT; 100 ng E224A RT; 37.5 ng P225A RT; 20 ng P226A RT; 18 ng F227A RT; 30 ng L228A RT; 30 ng W229A RT; 10 ng M230A RT; 30 ng G231A RT; 62.5 ng N474A RT; 1 μg Y501A RT; 100 ng A502F RT; 37.5 ng A508V RT; 38 ng HIV-1 group O RT. The reaction mixture was incubated for 1 h at 37°C, stopped by addition of EDTA and products were measured with a multilabel counter plate reader Victor 3 (Perkin Elmer model 1420–051) equipped with filters for 490/528 nm (excitation/emission wavelength)

Experiment [2] deals with T2, HIV-1 RT-associated RNase H activity, W229A RT (Human immunodeficiency virus type 1 group M subtype B, UniProt P04585, W816A).
T2 construct: The 1:1 ration between the p66/p51 subunits was also verified; made in house; host or cells: E. coli M15
Put plainly: RNase H activity assay, W229A RT. The format is biochemical, HIV-1 group M subtype B. The note with it: for Fold of increase of RNase H IC50 with respect to wt RT: W229A RT. As for the experimental part: as §1

The target in another experiment is T3, p66/p51 HIV-1 RT (Human immunodeficiency virus type 1 group M subtype B, UniProt P04585).
T3 construct: The 1:1 ration between the p66/p51 subunits was also verified; made in house; host or cells: E. coli M15
Put plainly: Thermal stability by differential scanning fluorimetry. The experiment is classed as binding. The note with it: increasing concentrations of inhibitor. As to the method: Thermal stability assays were performed according to Nettleship et al.. […] The mixture was heated from 30 to 90°C in increments of 0.2°C. Fluorescence intensity was measured using excitation and emission wavelengths of 483 and 568 nm, respectively. Changes in protein thermal stability (ΔTm) upon inhibitor binding were analyzed by using the LightCycler 480 software. All assays were performed in triplicate.
(DSF heats the sample and reads unfolding from a dye or from intrinsic fluorescence.)

Experiment [3] concerns the target T4, HIV-1 RT-associated RNase H activity, E224A RT (Human immunodeficiency virus type 1 group M subtype B, UniProt P04585, E811A).
T4 construct: The 1:1 ration between the p66/p51 subunits was also verified; made in house; host or cells: E. coli M15
Put plainly: RNase H activity assay, E224A RT. The note with it: for Fold of increase of RNase H IC50 with respect to wt RT: E224A RT. The format is biochemical, HIV-1 group M subtype B. As for the experimental part: as §1

The target in experiment [4] is T5, HIV-1 RT-associated RNase H activity, A508V RT (Human immunodeficiency virus type 1 group M subtype B, UniProt P04585, A1095V).
T5 construct: The 1:1 ration between the p66/p51 subunits was also verified; made in house; host or cells: E. coli M15
Put plainly: RNase H activity assay, A508V RT. The format is biochemical, HIV-1 group M subtype B. The note with it: for Fold of increase of RNase H IC50 with respect to wt RT: A508V RT. As to the method:
as §1

The target in experiment [5] is T6, HIV-1 RT-associated RNase H activity, Y188L RT (Human immunodeficiency virus type 1 group M subtype B, UniProt P04585, Y775L).
T6 construct: The 1:1 ration between the p66/p51 subunits was also verified; made in house; host or cells: E. coli M15
Put plainly: RNase H activity assay, Y188L RT. The experiment is classed as biochemical, HIV-1 group M subtype B. As for the experimental part:
as §1

Experiment [6] has as its target T7, HIV-1 RT-associated RNase H activity, wt RT (Human immunodeficiency virus type 1 group M subtype B, UniProt P04585).
T7 construct: The 1:1 ration between the p66/p51 subunits was also verified; made in house; host or cells: E. coli M15
Put plainly: biochemical. Details: species or system HIV-1 group M subtype B. As for the experimental part: as §1

The target of experiment [7] is T8, HIV-1 RT-associated RNase H activity, N474A RT (Human immunodeficiency virus type 1 group M subtype B, UniProt P04585, N1061A).
T8 construct: The 1:1 ration between the p66/p51 subunits was also verified; made in house; host or cells: E. coli M15
Put plainly: biochemical. The format is biochemical, HIV-1 group M subtype B. As to the method:
as §1, with “5'-[…]-Fluorescin-3'” for “5'-GAUCUGAGCCUGGGAGCU-Fluorescin-3'”, “5'-Dabcyl-[…]-3'(HPLC,” for “5'-Dabcyl-AGCTCCCAGGCTCAGATC-3'(HPLC,”

Experiment [8] deals with T9, HIV-1 RT-associated RNase H activity, Y501A RT (Human immunodeficiency virus type 1 group M subtype B, UniProt P04585, Y1088A).
T9 construct: The 1:1 ration between the p66/p51 subunits was also verified; made in house; host or cells: E. coli M15
Put plainly: biochemical. The experiment is classed as biochemical, HIV-1 group M subtype B. As to the method:
as §1, with “5'-[…]-Fluorescin-3'” for “5'-GAUCUGAGCCUGGGAGCU-Fluorescin-3'”, “5'-Dabcyl-[…]-3'(HPLC,” for “5'-Dabcyl-AGCTCCCAGGCTCAGATC-3'(HPLC,”

Experiment [9] has as its target T10, HIV-1 RT-associated RNase H activity, L228A RT (Human immunodeficiency virus type 1 group M subtype B, UniProt P04585, L815A).
T10 construct: The 1:1 ration between the p66/p51 subunits was also verified; made in house; host or cells: E. coli M15
Put plainly: RNase H activity assay, L228A RT. The experiment is classed as biochemical, HIV-1 group M subtype B. The note with it: for Fold of increase of RNase H IC50 with respect to wt RT: L228A RT. As for the experimental part: as §1

The target in experiment [10] is T11, HIV-1 RT-associated RNase H activity, P225A RT (Human immunodeficiency virus type 1 group M subtype B, UniProt P04585, P812A).
T11 construct: The 1:1 ration between the p66/p51 subunits was also verified; made in house; host or cells: E. coli M15
Put plainly: RNase H activity assay, P225A RT. The format is biochemical, HIV-1 group M subtype B. The note with it: for Fold of increase of RNase H IC50 with respect to wt RT: P225A RT. As for the experimental part: as §1

In experiment [11] the target is T12, HIV-1 RT-associated RNase H activity, Y181C RT (Human immunodeficiency virus type 1 group M subtype B, UniProt P04585, Y768C).
T12 construct: The 1:1 ration between the p66/p51 subunits was also verified; made in house; host or cells: E. coli M15
Put plainly: RNase H activity assay, Y181C RT. The format is biochemical, HIV-1 group M subtype B. As to the method: as §1

This note sets out measurements from PMC4723341, “Ribonuclease H/DNA Polymerase HIV-1 Reverse Transcriptase Dual Inhibitor: Mechanistic Studies on the Allosteric Mode of Action of Isatin-Based Compound RMNC6” (PLoS ONE, 2016).

Each structure is given as a SMILES string. Where “and” joins values, the source holds several entries; their conditions need not be identical. Identical values can stand only once. Like-named read-outs stand apart in the source and are kept apart here. Where only a bound is given, the exact number is not on record here.

Turning to `CC(C)c1ccc(O)c(=O)c(O)c1` [BTP, β-thujaplicinol, reference compound], the concentration for half-maximal inhibition (IC50) – broadly, the concentration at which inhibition is half-maximal – stood at 160 ± 30 nM in experiment [1]; 150 ± 80 nM in [2]; 0.15 ± 0.03 µM in experiment [3]; 0.16 ± 0.05 µM in experiment [4]; 80 ± 50 nM in experiment [5] (Y188L RT, read-out: IC50 RNase H); 190 ± 30 nM in [6]. For the same molecule, the IC50 in experiment [7] stood at 920 ± 10 nM; in [8], 70 ± 2 nM; in experiment [9] it was 100 ± 60 nM; in experiment [10], 130 ± 60 nM; in experiment [11] (Y181C RT, read-out: IC50 RNase H), 230 ± 50 nM. The “Fold of increase of RNase H IC50 with respect to wt RT” value (shortened to “Fold of increase of RNase H IC50”) worked out at 0.8 in experiment [2]; 0.8 in experiment [3]; 0.8 in [4]; 4.8 in [7] (N474A RT); 0.4 in [8] (Y501A RT); 0.5 in [9]. Further, the “Fold of increase of RNase H IC50” value in experiment [10] came to 0.7. On p66/p51 HIV-1 RT (in the presence of Mg2+), the “Tm increase of HIV-1 RT” value was less than 2.0 °C.

Regarding `N#Cc1ccc(-c2csc(NN=C3C(=O)Nc4ccccc43)n2)cc1` [RMNC6, (Z)-4-(2-(2-(2-oxoindolin-3-ylidene)hydrazinyl)thiazol-4-yl)benzonitrile], the IC50 in experiment [1] came to 5300 ± 600 nM; in [2], 1900 ± 500 nM; in experiment [3], 7.9 ± 1.1 µM; in [4] it was 6.5 ± 0.7 µM; in [5] it was 1600 ± 500 nM; in experiment [6] it was 1300 ± 300 nM. Besides, the IC50 in [7] was more than 100000 nM; in experiment [8] it was more than 100000 nM; in experiment [9], 1500 ± 100 nM; in [10] it was 1700 ± 200 nM; in experiment [11] it was 2100 ± 600 nM. In addition, the “Fold of increase of RNase H IC50” value is 1.5 in [2]; 6 and 6.1 in experiment [3]; 5.0 in experiment [4]; more than 77 in experiment [7] (N474A RT); more than 77 in experiment [8] (Y501A RT); 1.1 in experiment [9]. Further, the “Fold of increase of RNase H IC50” value in experiment [10] is given as 1.3. Also, the “Effect on RT thermal stability” value on p66/p51 HIV-1 RT is given as “did not affect significantly”. Besides, the “Resistance of RNase H function” value in experiment [7] (N474A RT) and in experiment [8] (Y501A RT) was “full resistance” each time.
